Experimental data reported in patent US10561591B2, “Hair care regimen using compositions comprising moisture control materials” (The Procter & Gamble Company, priority 2015, dated 2020).

Test: Penetration amount of moisture control material inside hair (extraction with 0.1% TFA in methanol, HPLC)
Details: 2% 2-hydroxyethyl urea versus composition without (example III and IV)
Procedure: Each hair tress is extracted 3 times with 0.1% TFA (Trifluoroacetic acid) in methanol and the individual extracts are analyzed separately using HPLC method.
In the case of `O=C(O)c1ccccc1O` [Salicylic acid], the “increase of penetration of salicylic acid inside hair by 2-hydroxyethyl urea” value is reported as 14%.

Test: Dynamic Vapor Sorption (DVS) measurement: % water reduction of treated hair versus control
Details: not given
Procedure: The % water reduction is calculated as follows: […]
Leave-on Treatment Formulation: […]
With `O=CC(=O)O` [glyoxylic acid] the “% water reduction in regimen, in words” value was “further increase % water reduction”.

Test: Expert rating of hair switches for frizz, clean feel and greasy feel (5 point scale) after high humidity
Details: 1% in ethanol/water leave-on
Procedure: (§1) Additional leave-on treatment compositions are prepared (Tables 1 and 2) according to the procedure described above, which are used to treat hair switches using the procedure described above (amount of 0.10 g of composition per g of hair). […] Then, ten experts are asked to rate each hair switch in terms of frizz, clean feel, and greasy feel, based on a 5 point scale, 5 being the highest and 1 being the lowest rating.
Acceptable values are: • For frizz, less than 2 (lower number corresponds to less frizz); • For no greasy feel less than 3, (lower number corresponds to less greasy feel), and • For clean feel greater than 3 (higher number corresponds to cleaner feel).
as §1, with “(Tables 6” for “(Tables 1”, “and 7)” for “and 2)”, “rating. Acceptable values are: • For frizz, less than 2 (lower number corresponds to less frizz); • For no greasy feel less than 3, (lower number corresponds to less greasy feel), and • For clean feel greater than 3 (higher number corresponds to cleaner feel).” for “rating.”
In the case of `O=C(O)c1ccc(O)cc1O` [2,4-Dihydroxybenzoic acid], the “hair switch rating (frizz, clean feel, greasy feel), in words” value (shortened to “hair switch rating”) is reported as “provide fizz protection with clean feel and without greasy feel negative”. With `O=C(OCCO)c1ccccc1O` [2-Hydroxyethyl salicylate] the “hair switch rating” value was “provide frizz protection with clean feel and without greasy feel negative”. For `O=S(=O)(O)c1ccc(O)cc1` [4-Hydroxybenzenesulphonic acid], the “hair switch rating” value was “provide fizz protection with clean feel and without greasy feel negative”. With `O=C(O)c1ccccc1O` [Salicylic acid] the “hair switch rating” value was “provide fizz protection with clean feel and without greasy feel negative”. In the case of `O=C(O)c1cc(Cl)ccc1O` [5-Chlorosalicylic acid], the “hair switch rating” value is reported as “provide fizz protection with clean feel and without greasy feel negative”. For `CC(C)CCCCCCCCCCCCCCCOC(=O)CCCCCCCCCCCCCCC(C)C` [Isostearyl isostearate], the “hair switch rating” value was “provide frizz protection with clean feel and without greasy feel negative”. In the case of `CCCCCCCCC(CO)CCCCCC` (stereo not drawn) [2-Hexyl-1-decanol], the “hair switch rating” value is reported as “provide frizz protection with clean feel and without greasy feel negative”.
